# Measurements from ChEMBL document CHEMBL5150035, “Mechanism-based inhibition of GH127/146 cysteine glycosidases by stereospecifically functionalized l-arabinofuranosides” (Bioorg Med Chem, 2022).
# The source made the active and inactive calls. The calls are words filed in the database; no cut-off is given here.
# Legend:
# [1] = biological target: T1, Non-reducing end beta-L-arabinofuranosidase (Bifidobacterium longum subsp. longum) (UniProt E8MGH8); experiment: Inhibition of C-terminal-His6-tagged Bifidobacterium longum HypBA1 expressed in Escherichia coli C43 (DE3) cells […] using L-Araf3-Hyp as substrate preincubated with enzyme for 2 hrs followed by substrate addition and measured after 24 hrs by spectrophotometric analysis; conditions: time 26.0 hrs
# T1 sequence (whole entry): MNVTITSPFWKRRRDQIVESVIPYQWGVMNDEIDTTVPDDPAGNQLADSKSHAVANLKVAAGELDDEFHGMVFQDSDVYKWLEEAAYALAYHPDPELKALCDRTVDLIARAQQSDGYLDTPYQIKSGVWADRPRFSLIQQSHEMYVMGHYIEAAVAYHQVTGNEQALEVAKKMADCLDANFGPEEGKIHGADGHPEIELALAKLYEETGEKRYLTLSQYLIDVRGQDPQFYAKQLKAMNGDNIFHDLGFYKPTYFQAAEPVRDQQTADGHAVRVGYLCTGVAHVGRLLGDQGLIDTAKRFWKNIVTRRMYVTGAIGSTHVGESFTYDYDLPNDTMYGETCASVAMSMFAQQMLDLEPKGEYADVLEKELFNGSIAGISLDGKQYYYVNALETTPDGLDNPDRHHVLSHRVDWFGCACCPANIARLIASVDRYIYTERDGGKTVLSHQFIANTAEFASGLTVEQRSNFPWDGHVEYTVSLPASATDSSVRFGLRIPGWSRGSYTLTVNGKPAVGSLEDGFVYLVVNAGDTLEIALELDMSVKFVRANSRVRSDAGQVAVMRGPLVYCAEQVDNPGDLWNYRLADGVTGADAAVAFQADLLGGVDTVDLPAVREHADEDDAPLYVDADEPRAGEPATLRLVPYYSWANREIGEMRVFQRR
# [2] = Drug metabolism assessed as hydrolysed metabolite formation at 10 mM incubated for 24 hrs in presence of TCEP by TLC analysis; assay type: ADME; conditions: 10000 µM
# Bifidobacterium longum [3] = experiment: Inhibition of Bifidobacterium longum JCM 1217 HypBA1 homologue BLLJ_1848 using S3 as substrate preincubated with enzyme followed by substrate addition for 30 mins in presence of TCEP by HPLC-FLD analysis
# Bifidobacterium longum [4] = experiment: Inhibition of Bifidobacterium longum JCM 1217 HypBA1 homologue BLLJ_1848 using S3 as substrate preincubated with enzyme followed by substrate addition for 30 mins in absence of TCEP by HPLC-FLD analysis
# [5] = Substrate activity at Bifidobacterium longum JCM 1217 HypBA1 homologue BLLJ_1848 at 10 mM incubated for 24 hrs in presence of TCEP by TLC analysis; assay type: ADME; conditions: 10000 µM
# [6] = biological target: T1, Non-reducing end beta-L-arabinofuranosidase (Bifidobacterium longum subsp. longum); experiment: Inhibition of C-terminal-His6-tagged Bifidobacterium longum HypBA1 expressed in Escherichia coli C43 (DE3) cells assessed as reduction in pNP liberation using pNP-beta-L-Araf as substrate at 0.1 to 1 mM preincubated with enzyme for 2 hrs followed by substrate addition and measured after 24 hrs by spectrophotometric analysis; conditions: dose 0.1-1 mM, time 26.0 hrs
# [7] = Substrate activity at Bifidobacterium longum JCM 1217 HypBA1 homologue BLLJ_1848 at 10 mM incubated for 24 hrs in absence of TCEP by TLC analysis; assay type: ADME; conditions: 10000 µM
Structure (SMILES),inhibition [1],Drug metabolism [2],Activity [5],inhibition [6],further results
O=C(CCl)N[C@@H]1O[C@@H](CO)[C@H](O)[C@H]1O,Active,–,–,–,–
[N-]=[N+]=N[C@@H]1O[C@@H](CO)[C@H](O)[C@H]1O,–,Metabolite_Detected,Active,–,inhibition (Bifidobacterium longum [3]): Active; inhibition (Bifidobacterium longum [4]): Active
O=C(CBr)N[C@H]1O[C@@H](CO)[C@H](O)[C@H]1O,–,–,–,Active,–
O=C(CCl)N[C@H]1O[C@@H](CO)[C@H](O)[C@H]1O,Active,–,–,–,–
[N-]=[N+]=N[C@H]1O[C@@H](CO)[C@H](O)[C@H]1O,–,Metabolite_Detected,Active,–,Activity [7]: Active
O=C(CBr)N[C@@H]1O[C@@H](CO)[C@H](O)[C@H]1O,–,–,–,Active,–
